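Following 48 hours of exposure in 96-well plates, responses at five concentrations were used to interpolate endpoints linearly. Definition used: TGI = concentration required for complete inhibition of growth.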
Assays:
Test in all cases: NCI-60 cell line screen, 48 h
UACC-62 melanoma = test system: UACC-62 melanoma
SNB-75 CNS = test system: SNB-75 CNS
ACHN renal = test system: ACHN renal
SNB-19 CNS = test system: SNB-19 CNS
NCI-H226 lung = test system: NCI-H226 lung
MDA-MB-435 = test system: MDA-MB-435
RXF 393 renal = test system: RXF 393 renal
OVCAR-8 ovarian = test system: OVCAR-8 ovarian
SK-MEL-2 melanoma = test system: SK-MEL-2 melanoma
CCRF-CEM leukemia = test system: CCRF-CEM leukemia
MDA-N = test system: MDA-N

Measured: TGI

COc1cc(OC)cc(OCc2nc3cc(C(F)(F)F)ccc3nc2-c2ccccc2)c1
> 100 µM: all assays above

O=c1ccc2ccc(OP(=O)(O)O)cc2o1
> 100 µM: all assays above

Source: PubChem BioAssay (NCI)
